The values below come from patent publication EP1268431B1 (Wyeth, priority 2000, dated 2001).

The subject of assay [1] is human adenocarcinoma cell line CaCo-2. In words: Cell Based Screen for Inhibitors of Raf Kinase, CaCo-2 cells. Particulars: CaCo-2, four days, SRB. How it is done: (§1) • Cell Lines: Human adenocarcinoma cell line LoVo which is known to be growth inhibited by low nM concentrations of a reference standard inhibitor of Ras and human adenocarcinoma cell line CaCo-2, which is known to be growth resistant to the same reference compound. • Cell Media: RPMI 1640 with 10% Fetal Bovine Serum supplemented with L-glutamine and Pennicilin/Streptomycin. • Compounds: Supplied usually as a 10 mM stock in 100% DMSO. • Normal Saline: 150 mM NaCl • Trichloroacetic Acid (TCA): 50% (w/v) in water • Sulforhodamine B (SRB): 0.4% (w/v) in 1% Acetic Acid • Tris Base: 10 mM in water
(§2) Cells are plated at 2000 cells per well for cell line LoVo and 1500 cells for cell line CaCo-2 in 96 well plates. Cells are plated in media (200 µl) and allowed to adhere overnight at 37° C. At 24 hours post plating, compounds are added directly at a volume of 0.5 µl. For the qualitative screen (compounds screened at 25 µM) compound is added directly to cells. For the quantitative screen, compound is first diluted in DMSO to generate concentrations of compound or reference standard of: 1, 5, 10 and 25 µM. It is advisable to make the dilutions in an identical 96 well plate so that compounds may be added using a multichannel micropipettor set at 0.5 µl. The cells are then incubated for four days after which the media is removed using a 12 well manifold by first tipping the plate forward at a 45 degree angle and then inserting the manifold in an upright orientation to prevent the tips of the manifold from disturbing cells at the bottom of the plate. 200 µl of normal saline is then added to each well using an 8 well multichannel pipettor, followed by the careful addition of 50 µl of 50% TCA. The plates are then incubated for 2 hours at 4 ° C, after which the supernatant is removed using the same technique as above and the plated washed twice with 200 µl water. The plates are then air dried and 50 µl of SRB stock solution is carefully added so that the entire bottom of each well is covered. This again may be used using an 8 well multichannel pipettor. The SRB is incubated with fixed cells for 15 minutes at room temperature after which the SRB is removed with the manifold as described above and the plates washed twice with 350 µl of 1% acetic acid per well each time.The plates are then air dried after which the bound SRB is released from protein by the addition of 200 µl of Tris base. Resolubilizing the SRB is aided by placing the plates on a rotator for 15-30 minutes. The absorbance of each well is determined at 550 or 562 nm using a microtiter plate reader.
(§3) Each compound or dilution thereof is performed in triplicate. Outliers are identified by visual inspection of the data. Each plate should have a "0" control (vehicle only).
(§4) Quantitative Assay: A standard curve is constructed by plotting the concentration of compound against the average absorbance calculated at that concentration. A curve is plotted and the concentration at which the curve passes through the 50% the absorbance mark seen in the "0" control well is the IC50 calculated for that compound. […]

Assay [2] concerns Human adenocarcinoma cell line LoVo. In words: Cell Based Screen for Inhibitors of Raf Kinase, LoVo cells. Particulars: four days, SRB. How it is done:
as §1, §2, §3, §4

As usually defined, the IC50 is the point on the concentration scale where inhibition reaches its midpoint. Low values mean higher potency, high ones lower potency. As for `Cn1ccnc1Sc1ccc(Nc2c(C#N)cnc3cc(-c4ccc(CN5CCOCC5)nc4)ccc23)cc1Cl` [Example 109, 4-({3-Chloro-4-[(1-methyl-1H-imidazol-2-yl)sulfanyl]phenyl}amino)-7-[6-(4-morpholinylmethyl)-3-pyridinyl]-3-quinolinecarbonitrile], the IC50 in assay [1] (Homo sapiens, Caco-2, 96 h) worked out at 980 nM; in assay [2] (Homo sapiens, 96 h), 6.8 nM.

Regarding `Cn1ccnc1Sc1ccc(Nc2c(C#N)cnc3cc(-c4ccc(N5CCSCC5)nc4)ccc23)cc1Cl` [Example 110, 4-({3-Chloro-4-[(1-methyl-1H-imidazol-2-yl)sulfanyl]phenyl}amino)-7-[6-(4-thiomorpholinyl)-3-pyridinyl]-3-quinolinecarbonitrile], the IC50 in assay [1] (Homo sapiens, Caco-2, 96 h) was more than 1000 nM; in assay [2] (Homo sapiens, 96 h) it was 10 nM.

`COc1cc2c(Nc3ccc(Sc4nccn4C)c(Cl)c3)c(C#N)cnc2cc1-c1ccc(CN2CCOCC2)cc1` [Example 123, 4-{3-Chloro-4-[(1-methyl-1H-imidazol-2-yl)sulfanyl]anilino}-6-methoxy-7-[4-(4-morpholinylmethyl)phenyl]-3-quinolinecarbonitrile]: the IC50 in assay [1] (Homo sapiens, Caco-2, 96 h) worked out at 1500 nM; in assay [2] (Homo sapiens, 96 h), 40 nM.

In the case of `COc1cc2c(Nc3ccc(Sc4nccn4C)c(Cl)c3)c(C#N)cnc2cc1-c1csc(CN2CCOCC2)c1` [Example 125, 4-{3-Chloro-4-[(1-methyl-1H-imidazol-2-yl)sulfanyl]anilino}-6-methoxy-7-[5-(4-morpholinylmethyl)-3-thienyl]-3-quinolinecarbonitrile], the IC50 was 2800 nM in assay [1]; 1900 nM in assay [1] (Homo sapiens, Caco-2, 96 h); 20 nM in assay [2] (Homo sapiens, 96 h); 15 nM in assay [2].

In the case of `COc1cc2c(Nc3ccc(Sc4nccn4C)c(Cl)c3)c(C#N)cnc2cc1-c1csc(CN2CCN(C)CC2)c1` [Example 126, 4-{3-Chloro-4-[(1-methyl-1H-imidazol-2-yl)sulfanyl]anilino}-6-methoxy-7-{5-[(4-methyl-1-piperazinyl)methyl]-3-thienyl}-3-quinolinecarbonitrile], the IC50 is more than 1000 nM in assay [1] (Homo sapiens, Caco-2, 96 h) and 75 nM in assay [2] (Homo sapiens, 96 h).

On to `Cn1ccnc1Sc1ccc(Nc2c(C#N)cnc3cc(-c4ccc(C(=O)N5CCOCC5)cc4)ccc23)cc1Cl` [Example 129, 4-({3-Chloro-4-[(1-methyl-1H-imidazol-2-yl)sulfanyl]phenyl}amino)-7-[4-(4-morpholinylcarbonyl)phenyl]-3-quinolinecarbonitrile], for which the IC50 was more than 1000 nM in assay [1] (Homo sapiens, Caco-2, 96 h) and 42 nM in assay [2] (Homo sapiens, 96 h).

Take `N#Cc1cnc2cc(-c3ccc(CN4CCOCC4)c(CN4CCOCC4)c3)ccc2c1Nc1ccc(OCc2ccccc2)c(Cl)c1` [Example 132, 4-[4-(benzyloxy)-3-chloroanilino]-7-[3,4-bis(4-morpholinylmethyl)phenyl]-3-quinolinecarbonitrile]: the IC50 worked out at 7000 nM in assay [1] (Homo sapiens, Caco-2, 96 h) and 430 nM in assay [2] (Homo sapiens, 96 h).

Consider `Cn1ccnc1Sc1ccc(Nc2c(C#N)cnc3cc(-c4ccc(CN5CCC(O)CC5)cc4)ccc23)cc1Cl` [Example 134, 4-{3-chloro-4-[(1-methyl-1H-imidazol-2-yl)sulfanyl]anilino}-7-{4-[(4-hydroxy-1-piperidinyl)methyl]phenyl}-3-quinolinecarbonitrile], for which the IC50 in assay [1] (Homo sapiens, Caco-2, 96 h) is more than 1000 nM; in assay [2] (Homo sapiens, 96 h), 4.6 nM.

With `CN1CCN(Cc2ccc(-c3ccc4c(Nc5ccc(Sc6nccn6C)c(Cl)c5)c(C#N)cnc4c3)cc2)CC1` [Example 135, 4-{3-chloro-4-[(1-methyl-1H-imidazol-2-yl)sulfanyl]anilino}-7-{4-[(4-methyl-1-piperazinyl)methyl]phenyl}-3-quinolinecarbonitrile], the IC50 in assay [1] (Homo sapiens, Caco-2, 96 h) was more than 1000 nM; in assay [2] (Homo sapiens, 96 h), 6.8 nM.

Consider `Cn1ccnc1Sc1ccc(Nc2c(C#N)cnc3cc(-c4ccc(CN5CCN(C(=O)OC(C)(C)C)CC5)cc4)ccc23)cc1Cl` [Example 137, tert-butyl 4-{4-[4-({3-chloro-4-[(1-methyl-1H-imidazol-2-yl)sulfanyl]phenyl}amino)-3-cyano-7-quinolinyl]benzyl}-1-piperazinecarboxylate], for which the IC50 was more than 1000 nM in assay [1] (Homo sapiens, Caco-2, 96 h) and 48.5 nM in assay [2] (Homo sapiens, 96 h).

`Cn1ccnc1Sc1ccc(Nc2c(C#N)cnc3cc(-c4ccc(CN5CCOCC5)o4)ccc23)cc1Cl` [Example 154, 4-{3-chloro-4-[(1-methyl-1H-imidazol-2-yl)sulfanyl]anilino}-7-[5-(4-morpholinylmethyl)-2-furyl]-3-quinolinecarbonitrile]: the IC50 was more than 1000 nM in assay [1] (Homo sapiens, Caco-2, 96 h) and 6.8 nM in assay [2] (Homo sapiens, 96 h).

Take `Cn1ccnc1Sc1ccc(Nc2c(C#N)cnc3cc(-c4ccc(CN5CCN(CCO)CC5)o4)ccc23)cc1Cl` [Example 157, 4-{3-chloro-4-[(1-methyl-1H-imidazol-2-yl)sulfanyl]anilino}-7-(5-{[4-(2-hydroxyethyl)-1-piperazinyl]methyl}-2-furyl)-3-quinolinecarbonitrile]: the IC50 in assay [1] (Homo sapiens, Caco-2, 96 h) was more than 1000 nM; in assay [2] (Homo sapiens, 96 h), 24.5 nM.

On to `Cn1ccnc1Sc1ccc(Nc2c(C#N)cnc3cc(-c4ccc(CN5CCC(O)CC5)s4)ccc23)cc1Cl` [Example 159, 4-{3-chloro-4-[(1-methyl-1H-imidazol-2-yl)sulfanyl]anilino}-7-{5-[(4-hydroxy-1-piperidinyl)methyl]-2-thienyl}-3-quinolinecarbonitrile], for which the IC50 in assay [1] (Homo sapiens, Caco-2, 96 h) worked out at 710 nM; in assay [2] (Homo sapiens, 96 h) it was 4.2 nM.

Regarding `Cn1ccnc1Sc1ccc(Nc2c(C#N)cnc3cc(-c4ccc(CN5CCCCC5)s4)ccc23)cc1Cl` [Example 160, 4-{3-chloro-4-[(1-methyl-1H-imidazol-2-yl)sulfanyl]anilino}-7-[5-(1-piperidinylmethyl)-2-thienyl]-3-quinolinecarbonitrile], the IC50 worked out at 620 nM in assay [1] (Homo sapiens, Caco-2, 96 h) and 4.1 nM in assay [2] (Homo sapiens, 96 h).

Regarding `Cn1ccnc1Sc1ccc(Nc2c(C#N)cnc3cc(-c4ccc(CN5CCN(CCO)CC5)s4)ccc23)cc1Cl` [Example 161, 4-{3-chloro-4-[(1-methyl-1H-imidazol-2-yl)sulfanyl]anilino}-7-(5-{[4-(2-hydroxyethyl)-1-piperazinyl]methyl}-2-thienyl)-3-quinolinecarbonitrile], the IC50 in assay [1] (Homo sapiens, Caco-2, 96 h) was more than 1000 nM; in assay [2] (Homo sapiens, 96 h), 5.6 nM.

Regarding `N#Cc1cnc2cc(-c3cc(CN4CCOCC4)c(CN4CCOCC4)s3)ccc2c1Nc1ccc(Oc2ccccc2)cc1` [Example 168, 7-[4,5-bis(4-morpholinylmethyl)-2-thienyl]-4-(4-phenoxyanilino)-3-quinolinecarbonitrile], the IC50 in assay [1] (Homo sapiens, Caco-2, 96 h) came out at 4600 nM; in assay [2] (Homo sapiens, 96 h), 2000 nM.

As for `Cn1ccnc1Sc1ccc(Nc2c(C#N)cnc3cc(-c4ccc(C=O)cn4)ccc23)cc1Cl` [Example 170, 4-{3-chloro-4-[(1-methyl-1H-imidazol-2-yl)sulfanyl]anilino}-7-(5-formyl-2-pyridinyl)-3-quinolinecarbonitrile], the IC50 in assay [1] was 5000 nM; in assay [1] (Homo sapiens, Caco-2, 96 h), more than 10000 nM; in assay [2] (Homo sapiens, 96 h), 50 nM.

For `Cn1ccnc1Sc1ccc(Nc2c(C#N)cnc3cc(-c4ccc(CN5CCC(O)CC5)cn4)ccc23)cc1Cl` [Example 172, 4-{3-chloro-4-[(1-methyl-1H-imidazol-2-yl)sulfanyl]anilino}-7-{5-[(4-hydroxy-1-piperidinyl)methyl]-2-pyridinyl}-3-quinolinecarbonitrile], the IC50 in assay [1] (Homo sapiens, Caco-2, 96 h) was more than 1000 nM; in assay [2] (Homo sapiens, 96 h), 7.9 nM.
